Broadly, the IC50 is the midpoint of a concentration-inhibition curve.

Activity calls are given as the source filed them. No rule for the calls is given here. A value given as a limit tells only on which side of the number the result lay.

The text below walks through data of PubChem BioAssay AID1159565 (GlaxoSmithKline (GSK), 2015).

The test system of one assay is T. cruzi-infected H9C2 cardiomyocytes, high-content imaging. In words: intracellular T. cruzi amastigote inhibition, imaging, H9C2 host cardiomyocytes, host toxicity (AID 1159565).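 Also: infected cells incubated 72 h after plating.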
Conditions: not given
For the molecule `NC(=O)c1ccccc1Nc1nc(NC2CCCCC2)nc2[nH]ccc12`, the IC50 was 1 µM.
The same measure, in the same setting: as for `CCc1cccc(-n2nc(OCC(=O)NC3CCCC3)c3cccnc32)c1`, the figure is > 50 µM (inactive).
Regarding `CNC(=O)C1Cc2ccccc2N1C(=O)Cc1ccc(F)cc1` (configuration not stated), the IC50 was > 50 µM (inactive).
The same measure, in the same setting: as for `Nc1cc(-c2ccc3ncnc(N4CCOCC4)c3c2)cnc1N`, the figure is 5 µM; as for `COc1cc(-c2nc(N3CCOCC3)sc2-c2ccnc(NC3CCOCC3)n2)ccc1Cl`, 0.16 µM.
In the case of `O=c1[nH]c(NCCCNCc2cc(Br)cc(Br)c2)nc2ccsc12`, the IC50 was 0.63 µM.
Same read-out and setting: as for `CN(C)CCOc1ccc(N2CCN(S(=O)(=O)c3ccc(Cl)cc3)CC2)cc1`, the figure is 0.63 µM.
Turning to `O=C(CC1(O)C(=O)N(Cc2cccs2)c2ccc(Br)cc21)c1cccnc1` (configuration not stated), the 50% inhibitory concentration (IC50) was 40 µM.
With `CN(C(=O)Nc1ccc2c(c1)CCN(C1CCC1)CC2)c1ccc(C#N)cc1`, the concentration for half-maximal inhibition (IC50) was 4 µM.
As for `COc1ccc(C2=NCC(CSc3nnc(-c4ccc5c(c4)OCO5)o3)S2)cc1` (configuration not stated), the IC50 was 0.5 µM.
Turning to `O=[N+]([O-])c1cccc(Nc2cncc(-c3ccccc3CO)c2)c1`, the IC50 is 0.4 µM.
Same read-out and setting: next, `Cc1nc2nc(C)c(Cc3ccc(C(C)C)cc3)c(=O)n2[nH]1`: 0.79 µM; `COc1cnc2ccc(=O)n(CCN3CCC(NC(=O)c4ccc(Cl)cc4)CC3)c2c1`: 0.25 µM.
In the case of `Cc1cc(C)cc(NS(=O)(=O)c2cc(-c3cc(C)[nH]n3)ccc2C)c1`, the half-maximal inhibitory concentration (IC50) is 1.6 µM.
For `Cc1cc2cc(CNc3ccc4c(c3)OCO4)c(=O)n(CCO)c2cc1C`, the half-inhibitory concentration (IC50) was 0.25 µM.
On to `COc1ccc(CN2C(=O)C(O)(CC(=O)c3ccncc3)c3cc(Br)ccc32)cc1OC` (configuration not stated), for which the half-maximal inhibitory concentration (IC50) was 25 µM.
As for `Cc1cc(NC(=O)C2CC2)ccc1OC1CCN(Cc2ccco2)CC1`, the half-inhibitory concentration (IC50) is 40 µM.
Still for that read-out and setting: as for `COc1ccc2ncc(F)c(NC(=O)C3(O)CCC(NCc4ccc5c(c4)OCCO5)CC3)c2n1` (configuration not stated), the figure is 0.13 µM; as for `Cn1cncc1CN1CCC2(CC1)COC(Cc1ccccc1)C2` (configuration not stated), 0.5 µM.
On the same count and under the same terms, next, `O=C(CN(Cc1ccccn1)Cc1ccccn1)NCc1csc(-c2cccs2)n1`: 6.3 µM; `CCc1cccc(CC)c1-n1c(SCC(=O)N2CC(=O)Nc3ccccc32)nnc1-c1cccnc1`: 32 µM.
Consider `COc1ccc(-c2cnc(C)o2)cc1S(=O)(=O)Nc1ccc(C)cc1C`, for which the IC50 is 3.2 µM.
On the same count and under the same terms, next, `O=c1oc2ccccc2n1C1CCN(Cc2ccccc2-c2cccnc2)CC1`: 0.32 µM.
In the case of `O=C1CN(C(=O)c2cccc(Nc3ncc(-c4ccc5c(c4)OCO5)cn3)c2)CCN1`, the half-maximal inhibitory concentration (IC50) is 0.79 µM.
`CCC1Oc2cc(S(=O)(=O)N(C)CC(=O)N3CCc4ccccc4C3)c(C)cc2NC1=O` (configuration not stated): the IC50 was 0.25 µM.
Same read-out and setting: as for `C=CCN(Cc1cccs1)C(=O)CSc1nnc(-c2ccc3c(c2)OCO3)o1`, the figure is 0.63 µM; as for `Cc1cc(NC(=O)c2ccc([N+](=O)[O-])s2)ccc1Br`, 0.4 µM; as for `Cn1nccc1NC(=O)Cn1ccc(-c2ccncc2)n1`, > 50 µM (inactive).
Take `O=C(c1cc2cc(Cl)ccc2[nH]1)N1CCCCC1c1cccnc1` (configuration not stated): the IC50 is 0.13 µM.
On the same count and under the same terms, as for `CC(C(=O)Nc1ccccc1F)N(C)CC(=O)Nc1cccc2ccccc12` (configuration not stated), the figure is 0.5 µM.
For `O=S(=O)(NCC(c1cccnc1)N1CCN(c2ccccc2F)CC1)c1ccc(F)cc1` (configuration not stated), the concentration for half-maximal inhibition (IC50) was 0.2 µM.
On the same count and under the same terms, next, `O=C(Nc1nccs1)c1ccccc1Cn1cc([N+](=O)[O-])cn1`: > 50 µM (inactive); `Nc1nccc(-c2csc(Nc3ccc(Cl)cc3)n2)n1`: > 50 µM (inactive).
On the same count and under the same terms, as for `O=C(Nc1nc(-c2ccccn2)cs1)N1C[C@H]2C[C@@]2(c2ccccc2)C1`, the figure is 0.5 µM.
As for `COc1ncc(-c2ccc3nccc(-c4ccncc4)c3c2)cc1NS(=O)(=O)C1CC1`, the IC50 is 2.5 µM.
As to `Cc1cc(NC(=O)CC2CCCCC2)n(-c2nc3c(c(=O)[nH]2)CCC3)n1`, the IC50 is 0.32 µM.
The same measure, in the same setting: next, `Cc1nc2c(-c3nc(-c4ccc(N)cc4)n[nH]3)cccn2c1C`: > 50 µM (inactive); `Nc1ncnc2c1ncn2[C@@H]1O[C@H](CO)C[C@H]1O`: 2 µM.
Still for that read-out and setting: as for `NS(=O)(=O)c1ccc(Nc2ncc3cccc(OC4CCNCC4)c3n2)cc1`, the figure is 0.05 µM; as for `Cn1c(CC(=O)NNC(=O)c2ccc3ccccc3n2)nc2ccccc21`, 5 µM.
For the molecule `O=C(NCc1nnc2n1CCCCC2)c1ccc(-c2ccc(F)cc2)o1`, the IC50 was 1.6 µM.
As for `CC(C)(C)CC(=O)NCc1noc(COc2ccccc2)n1`, the IC50 is 2.5 µM.
As to `O=C1NCCn2ccc(Nc3nc(NC4CCC(O)CC4)ncc3Cl)c21` (configuration not stated), the 50% inhibitory concentration (IC50) was 20 µM.
For `O=c1cc(NCCCNCc2c[nH]c3ccc(Br)cc23)[nH]c2ccccc12`, the IC50 is > 50 µM (inactive).
Same read-out and setting: as for `COc1ccc(C2CC(c3ccccc3Cl)=NN2C(=O)CNC(=O)C2CCCC2)cc1` (configuration not stated), the figure is 3.2 µM; as for `CNc1nc(C)nc(N2CCc3cc(C(=O)NCc4ccc(-c5ccn[nH]5)cc4Cl)ccc32)n1`, > 50 µM (inactive); as for `O=C(Cn1cnc([N+](=O)[O-])n1)Nc1ccc(Cl)cc1C(=O)c1ccccc1`, 1.3 µM.
Still for that read-out and setting: as for `CCS(=O)(=O)c1cccc(C(=O)Nc2nc(-c3ccccn3)cs2)c1`, the figure is 2.5 µM.
Take `O=S(=O)(c1ccccc1C(F)(F)F)N1CCN(Cc2ccc(-n3ccnc3)cc2)CC1`: the half-maximal inhibitory concentration (IC50) is 0.25 µM.
`COc1ccc(C(=O)N2CCC(Nc3cccnc3)C2)c(OC)n1` (configuration not stated): the IC50 was 0.79 µM.
In the case of `CN(C)c1ccc(-c2cc3nccnc3c(OC[C@H]3CCCNC3)n2)cn1`, the IC50 is > 50 µM (inactive).
In the case of `CC1CCCN(S(=O)(=O)c2ccc(C(=O)Nc3nc(-c4ccccn4)cs3)cc2)C1` (configuration not stated), the IC50 is 0.5 µM.
Regarding `CC(C)S(=O)(=O)c1ccc(-c2cnc(N)c3cc(-c4ccnc(N)n4)ccc23)cc1`, the 50% inhibitory concentration (IC50) was 40 µM.
Same read-out and setting: as for `COCc1cc(Nc2ccc(Cl)cc2)nc(-c2ccccn2)n1`, the figure is 5 µM; as for `Cc1ccc(Nc2nc(N)nc(CNC(c3nc4ccccc4[nH]3)C(C)C)n2)cc1` (configuration not stated), 7.9 µM.

The same assay, now with this note: measured here: H9C2 host cell toxicity.
For `NC(=O)c1ccccc1Nc1nc(NC2CCCCC2)nc2[nH]ccc12`, the IC50 came to 25 µM.
In turn, `CCc1cccc(-n2nc(OCC(=O)NC3CCCC3)c3cccnc32)c1` came in with a concentration for half-maximal inhibition (IC50) above 50 µM.
In turn, `CNC(=O)C1Cc2ccccc2N1C(=O)Cc1ccc(F)cc1` (configuration not stated) returned an IC50 above 50 µM.
Molecule `Nc1cc(-c2ccc3ncnc(N4CCOCC4)c3c2)cnc1N` returned a half-inhibitory concentration (IC50) of 3.2 µM.
Still for that read-out and setting: as for `COc1cc(-c2nc(N3CCOCC3)sc2-c2ccnc(NC3CCOCC3)n2)ccc1Cl`, the figure is above 50 µM; as for `O=c1[nH]c(NCCCNCc2cc(Br)cc(Br)c2)nc2ccsc12`, 25 µM.
The same measure, in the same setting: next, `CN(C)CCOc1ccc(N2CCN(S(=O)(=O)c3ccc(Cl)cc3)CC2)cc1`: above 50 µM; `O=C(CC1(O)C(=O)N(Cc2cccs2)c2ccc(Br)cc21)c1cccnc1` (configuration not stated): 4 µM.
The molecule `CN(C(=O)Nc1ccc2c(c1)CCN(C1CCC1)CC2)c1ccc(C#N)cc1` returned an IC50 above 50 µM.
Same read-out and setting: next, `COc1ccc(C2=NCC(CSc3nnc(-c4ccc5c(c4)OCO5)o3)S2)cc1` (configuration not stated): above 50 µM.
On the same count and under the same terms, next, `O=[N+]([O-])c1cccc(Nc2cncc(-c3ccccc3CO)c2)c1`: above 50 µM.
Molecule `Cc1nc2nc(C)c(Cc3ccc(C(C)C)cc3)c(=O)n2[nH]1` displayed an IC50 above 50 µM.
Molecule `COc1cnc2ccc(=O)n(CCN3CCC(NC(=O)c4ccc(Cl)cc4)CC3)c2c1` came in with an IC50 of 0.63 µM.
Same read-out and setting: as for `Cc1cc(C)cc(NS(=O)(=O)c2cc(-c3cc(C)[nH]n3)ccc2C)c1`, the figure is 32 µM; as for `Cc1cc2cc(CNc3ccc4c(c3)OCO4)c(=O)n(CCO)c2cc1C`, above 50 µM.
Molecule `COc1ccc(CN2C(=O)C(O)(CC(=O)c3ccncc3)c3cc(Br)ccc32)cc1OC` (configuration not stated) showed a half-maximal inhibitory concentration (IC50) of 2 µM.
For the molecule `Cc1cc(NC(=O)C2CC2)ccc1OC1CCN(Cc2ccco2)CC1`, the IC50 came out at 40 µM.
The same measure, in the same setting: as for `COc1ccc2ncc(F)c(NC(=O)C3(O)CCC(NCc4ccc5c(c4)OCCO5)CC3)c2n1` (configuration not stated), the figure is 32 µM.
On the same count and under the same terms, as for `Cn1cncc1CN1CCC2(CC1)COC(Cc1ccccc1)C2` (configuration not stated), the figure is above 50 µM.
In the case of `O=C(CN(Cc1ccccn1)Cc1ccccn1)NCc1csc(-c2cccs2)n1`, the half-maximal inhibitory concentration (IC50) was above 50 µM.
Still for that read-out and setting: next, `CCc1cccc(CC)c1-n1c(SCC(=O)N2CC(=O)Nc3ccccc32)nnc1-c1cccnc1`: above 50 µM; `COc1ccc(-c2cnc(C)o2)cc1S(=O)(=O)Nc1ccc(C)cc1C`: above 50 µM.
The same measure, in the same setting: as for `O=c1oc2ccccc2n1C1CCN(Cc2ccccc2-c2cccnc2)CC1`, the figure is above 50 µM.
On the same count and under the same terms, next, `O=C1CN(C(=O)c2cccc(Nc3ncc(-c4ccc5c(c4)OCO5)cn3)c2)CCN1`: 63 µM.
Molecule `CCC1Oc2cc(S(=O)(=O)N(C)CC(=O)N3CCc4ccccc4C3)c(C)cc2NC1=O` (configuration not stated) had an IC50 above 50 µM.
As for `C=CCN(Cc1cccs1)C(=O)CSc1nnc(-c2ccc3c(c2)OCO3)o1`, the concentration for half-maximal inhibition (IC50) is above 50 µM.
Consider `Cc1cc(NC(=O)c2ccc([N+](=O)[O-])s2)ccc1Br`, for which the IC50 came out at 2.5 µM.
